“And” between values parts separate entries of the source, which are not always exact repeats. Equal values may be shown once.
System: imiquimod-induced psoriasis
Assay: Imiquimod-induced psoriasis model
Format: in vivo, mice
Parameters: Spleen Weight / Spleen Weight Ratio: unit not given here
Details: for PASI Scores: IMI + Deucravacitinib 3 mg/kg; for Mean scores of the presence of erythema on the skin of animals at the area of induction of psoriasis / Mean scores of the presence of induration on the skin of animals at the area of induction of psoriasis / Mean scores of the presence of peeling on the skin of animals at the area of induction of psoriasis: mean ± SEM
From the text: Imiquimod-induced psoriasis is a model of psoriasis in mice that induces psoriasis-like dermatitis. The pathology closes resembles human plaque-type psoriasis and is a valuable tool for testing new therapies against psoriasis. […] Compound A was formulated in a 5% DMSO/40% PEG-400/55% (0.9% NaCl w/v water) solution (Table 2F). Experimental groups for the study are outlined in Table 4. Prior to study initiation, the backs of all animals in the study were depilated to allow for induction of psoriasis and monitoring of disease progression.
Once assigned to experimental groups, on Day 1 and continuing through Day 14, topical imiquimod (IMI; Aldara™ containing 5% Imiquimod) was administered to the dorsal depilated animals, and animals in group 1 received topical administration of Excipial® hydrocream (65 mg). […] Clobetasol was applied topically for animals in group 11.
Body weights were recorded three times a week from Day 1 to Day 8, and daily from Day 8 until the study end at Day 15. At termination on D15 the spleen weight ratio was determined. Disease severity was assessed using the psoriasis area severity index (PASI) daily from Day 8 until study completion on Day 15. The PASI score was calculated based on three parameters (presence of erythema, induration of the skin, and peeling of the skin at the area of induction) on a scale of 0 to 4 (0=no more or absence, 1=low, 2=moderate, 3=high, 4=severe). The PASI score for each animal was calculated as the sum of the score of each parameter measured. The score of the use of enrichment (SUE) was also assessed daily from Day 8 to Day 15. At study completion on Day 15, animal behavior was evaluated using an open field to assess distance travelled, number scratching, and licking and rearing performed in 10 minutes. Upon study termination animals were sacrificed, the spleen was excised and weighed, and blood samples were collected. Serum was isolated from the blood sample for cytokine and other biomarker analysis. IL-1B, IL-6, IL-17, and TNF-α assayed using simple plex technique on an ELLA automated immunoassay system. IL-22 and IL-23 were assayed by ELISA.
The imiquimod-induced model of psoriasis was used to assess the efficacy of Compound A in treating psoriasis. […] Treatment started on Day 8 after induction so reference to day 1 of treatment is to Day 8 and day 7 of treatment is to Day 14.

[1] = IMI-psoriasis model, behavioral evaluation D15, 3 mg/kg, individual animals
[2] = IMI-psoriasis model, behavioral evaluation, 3 mg/kg, individual animals
[3] = IMI-psoriasis model, mice, 3 mg/kg, individual animals
[4] = IMI + 3 mg/kg, D8 (before start of treatment)

## Deucravacitinib [reference compound]
3 mg/kg
  symptoms by day 15 (representative images): nearly entirely symptom free
3 mg/kg IP once daily
  PASI-90 (change in PASI score ≥90%) by day 7 of treatment: surpassed PASI-90
IMI + 3 mg/kg, Day 1 (before treatment start on Day 8), individual animals, 3 mg/kg, in g (unit assumed)
  Body Weight D1: 18.26 and 17.37 and 16.82 and 17.07 and 16.32 and 18.04 and 16.47 and 17.58
IMI + 3 mg/kg, Day 3 (before treatment start on Day 8), individual animals, 3 mg/kg, in g (unit assumed)
  Body Weight D3: 16.20 and 16.31 and 14.76 and 15.24 and 15.52 and 15.99 and 14.97 and 15.55
IMI + 3 mg/kg, Day 5 (before treatment start on Day 8), individual animals, 3 mg/kg, in g (unit assumed)
  Body Weight D5: 18.16 and 16.94 and 15.74 and 15.23 and 15.99 and 17.09 and 14.94 and 16.50
IMI + 3 mg/kg, Day 7 (before treatment start on Day 8), individual animals, 3 mg/kg, in g (unit assumed)
  Body Weight D7: 17.33 and 17.08 and 15.79 and 15.48 and 16.18 and 17.55 and 15.22 and 16.65
IMI + 3 mg/kg, Day 8 (first day of treatment), individual animals, 3 mg/kg, in g (unit assumed)
  Body Weight D8: 17.09 and 17.16 and 15.63 and 15.50 and 15.52 and 17.05 and 14.52 and 15.81
IMI + 3 mg/kg, Day 9, individual animals, 3 mg/kg, in g (unit assumed)
  Body Weight D9: 16.60 and 16.54 and 15.63 and 15.57 and 16.01 and 16.79 and 14.75 and 13.93
IMI + 3 mg/kg, Day 10, individual animals, 3 mg/kg, in g (unit assumed)
  Body Weight D10: 16.71 and 16.43 and 16.08 and 15.84 and 14.94 and 16.16 and 14.20
IMI + 3 mg/kg, Day 11, individual animals, 3 mg/kg, in g (unit assumed)
  Body Weight D11: 17.38 and 15.87 and 15.51 and 15.55 and 16.43 and 14.72
IMI + 3 mg/kg, Day 12, individual animals, 3 mg/kg, in g (unit assumed)
  Body Weight D12: 17.70 and 15.90 and 15.59 and 15.82 and 17.15 and 15.06
IMI + 3 mg/kg, Day 13, individual animals, 3 mg/kg, in g (unit assumed)
  Body Weight D13: 17.75 and 16.24 and 15.77 and 15.95 and 16.97 and 14.52
IMI + 3 mg/kg, Day 14, individual animals, 3 mg/kg, in g (unit assumed)
  Body Weight D14: 18.00 and 16.31 and 15.59 and 16.06 and 17.07 and 15.08
IMI + 3 mg/kg, Day 15, individual animals, 3 mg/kg, in g (unit assumed)
  Body Weight D15: 18.03 and 16.39 and 16.00 and 16.29 and 17.17 and 15.22
IMI + 3 mg/kg, body weight change Day 1 to Day 8 (before treatment), individual animals, 3 mg/kg
  MBWC D1-D8: −1.17 and −0.21 and −1.19 and −1.57 and −0.80 and −0.99 and −1.95 and −1.77
IMI + 3 mg/kg, body weight change Day 8 to Day 15 (treatment period), individual animals, 3 mg/kg
  MBWC D8-D15: 0.94 and 0.76 and 0.50 and 0.77 and 0.12 and 0.70
D8 (day treatment started), individual animals
  PASI Scores: 6 (3×) and 7 and 10 and 8 (3×)
D9, individual animals
  PASI Scores: 7 (3×) and 6 (4×) and 8
D10, individual animals
  PASI Scores: 6 (6×) and 7
D11, individual animals
  PASI Scores: 6 (3×) and 5 (2×) and 4
D12, individual animals
  PASI Scores: 4 (2×) and 3 (4×)
D13, individual animals
  PASI Scores: 2 (3×) and 0 (2×) and 4
D14, individual animals
  PASI Scores: 1 (4×) and 0 and 2
D15, individual animals
  PASI Scores: 1 (2×) and 0 (4×)
IMI-psoriasis model, D1, 3 mg/kg, per cage (two animals)
  Use Enrichment D1: 4.0
IMI-psoriasis model, D10, 3 mg/kg, per cage (two animals)
  Use Enrichment D10: 0.0
IMI-psoriasis model, D14, 3 mg/kg, per cage (two animals)
  Use Enrichment D14: 3.0 and 3.5 and 2.0
IMI-psoriasis model, D15, 3 mg/kg, per cage (two animals)
  Use Enrichment D15: 4.0 and 2.0
[1]
  Number Licking: 1 and 2 (2×) and 7 and 8
  Number Licking + Scratching: 2 (3×) and 10 and 20
  Number Scratching: 1 and 0 (2×) and 3 and 12
[2]
  Distance Traveled: 14 m (2×) and 9 m and 19 m and 12 m
  Number Rearings: 31 and 22 and 58 and 68 and 38
IMI-psoriasis model, mean D1-D8, 3 mg/kg, per cage (two animals)
  Use Enrichment Mean D1-D8: 2.50 and 2.00
[3]
  Spleen Weight: 195.00 and 187.27 and 171.30 and 177.57 and 171.11 and 127.21
  Spleen Weight Ratio: 1081.53 and 1142.59 and 1070.63 and 1090.06 and 996.56 and 835.81
[4]
  Mean scores of the presence of erythema on the skin of animals at the area of induction of psoriasis: 2.1 ± 0.1
  Mean scores of the presence of induration on the skin of animals at the area of induction of psoriasis: 2.8 ± 0.3
  Mean scores of the presence of peeling on the skin of animals at the area of induction of psoriasis: 2.5 ± 0.2
IMI + 3 mg/kg, D9
  Mean scores of the presence of erythema on the skin of animals at the area of induction of psoriasis: 2.1 ± 0.1
  Mean scores of the presence of induration on the skin of animals at the area of induction of psoriasis: 2.4 ± 0.2
  Mean scores of the presence of peeling on the skin of animals at the area of induction of psoriasis: 2.1 ± 0.1
IMI + 3 mg/kg, D10
  Mean scores of the presence of erythema on the skin of animals at the area of induction of psoriasis: 2.3 ± 0.2
  Mean scores of the presence of induration on the skin of animals at the area of induction of psoriasis: 2.0 ± 0.2
  Mean scores of the presence of peeling on the skin of animals at the area of induction of psoriasis: 1.9 ± 0.1
IMI + 3 mg/kg, D11
  Mean scores of the presence of erythema on the skin of animals at the area of induction of psoriasis: 1.8 ± 0.4
  Mean scores of the presence of induration on the skin of animals at the area of induction of psoriasis: 1.5 ± 0.2
  Mean scores of the presence of peeling on the skin of animals at the area of induction of psoriasis: 2.0 ± 0.3
IMI + 3 mg/kg, D12
  Mean scores of the presence of erythema on the skin of animals at the area of induction of psoriasis: 1.8 ± 0.2
  Mean scores of the presence of induration on the skin of animals at the area of induction of psoriasis: 0.5 ± 0.2
  Mean scores of the presence of peeling on the skin of animals at the area of induction of psoriasis: 1.0 ± 0.0
IMI + 3 mg/kg, D13
  Mean scores of the presence of erythema on the skin of animals at the area of induction of psoriasis: 0.8 ± 0.3
  Mean scores of the presence of induration on the skin of animals at the area of induction of psoriasis: 0.0 ± 0.0
  Mean scores of the presence of peeling on the skin of animals at the area of induction of psoriasis: 0.8 ± 0.3
IMI + 3 mg/kg, D14
  Mean scores of the presence of erythema on the skin of animals at the area of induction of psoriasis: 0.2 ± 0.2
  Mean scores of the presence of induration on the skin of animals at the area of induction of psoriasis: 0.0 ± 0.0
  Mean scores of the presence of peeling on the skin of animals at the area of induction of psoriasis: 0.8 ± 0.2
IMI + 3 mg/kg, D15
  Mean scores of the presence of erythema on the skin of animals at the area of induction of psoriasis: 0.0 ± 0.0
  Mean scores of the presence of induration on the skin of animals at the area of induction of psoriasis: 0.0 ± 0.0
  Mean scores of the presence of peeling on the skin of animals at the area of induction of psoriasis: 0.3 ± 0.2
mice, IMI + 3 mg/kg, D8 (before start of treatment)
  Mean PASI Scores in IMI-Psoriasis Model: 7.4 ± 0.5
mice, IMI + 3 mg/kg, D9
  Mean PASI Scores in IMI-Psoriasis Model: 6.6 ± 0.3
mice, IMI + 3 mg/kg, D10
  Mean PASI Scores in IMI-Psoriasis Model: 6.1 ± 0.1
mice, IMI + 3 mg/kg, D11
  Mean PASI Scores in IMI-Psoriasis Model: 5.3 ± 0.3
mice, IMI + 3 mg/kg, D12
  Mean PASI Scores in IMI-Psoriasis Model: 3.3 ± 0.2
mice, IMI + 3 mg/kg, D13
  Mean PASI Scores in IMI-Psoriasis Model: 1.7 ± 0.6
mice, IMI + 3 mg/kg, D14
  Mean PASI Scores in IMI-Psoriasis Model: 1.0 ± 0.3
mice, IMI + 3 mg/kg, D15
  Mean PASI Scores in IMI-Psoriasis Model: 0.3 ± 0.2
Relative to vehicle-treated psoriasis animals
  use of enrichment (nesting): about half that seen with Compound A
